Columns and labels:
[1] = system: S. haemolyticus AVAH 88-3; experiment: MIC, agar dilution; format: cell-based; conditions: S. hemolyticus AVHAH 88-3; Table IA; unit assumed
[2] = system: S. mariescens FDOR 8733; experiment: MIC, agar dilution (Table IA); format: cell-based; conditions: unit assumed
[3] = system: E. coli UBMS 90-5; experiment: MIC, agar dilution (Table IA); format: cell-based; conditions: unit assumed
[4] = system: S. aureus IVES 2943 (meth. resistant); experiment: MIC, agar dilution; format: cell-based; conditions: S. aureus IVES 2943; Table IA; unit assumed
[5] = system: S. aureus IVES 1983 (meth. resistant); experiment: MIC, agar dilution; format: cell-based; conditions: S. aureus IVES 1983; Table IA; unit assumed
[6] = system: E. coli BAJ9003; experiment: MIC, agar dilution (Table IA); format: cell-based; conditions: unit assumed
[7] = system: S. aureus ATCC 29213 (Sensitive); experiment: MIC, agar dilution; format: cell-based; conditions: S. aureus ATCC 29213; Table IA; unit assumed
[8] = system: S. aureus UBMS 90-1 (tetM); experiment: MIC, agar dilution; format: cell-based; conditions: S. aureus UBMS 90-1 TetM; Table IA; unit assumed
[9] = system: E. coli UBMS 90-4 (tetM); experiment: MIC, agar dilution; format: cell-based; conditions: E. coli UBMS 90-4 TetM; Table IA; unit assumed
[10] = system: S. aureus UBMS 90-3 (Sensitive); experiment: MIC, agar dilution; format: cell-based; conditions: S. aureus UBMS 90-3; Table IA; unit assumed
[11] = system: E. coli J3272 TetD; experiment: MIC, agar dilution (Table IA); format: cell-based; conditions: unit assumed
[12] = system: E. coli J2175; experiment: MIC, agar dilution (Table IA); format: cell-based; conditions: unit assumed
[13] = system: S. aureus UBMS 88-7 (tetK); experiment: MIC, agar dilution; format: cell-based; conditions: S. aureus UBMS 88-7 TetK; Table IA; unit assumed
[14] = system: E. faecalis 12201; experiment: MIC, agar dilution; format: cell-based; conditions: Enterococcus 12201; Table IA; unit assumed
[15] = system: E. coli J3272 TetC; experiment: MIC, agar dilution (Table IA); format: cell-based; conditions: unit assumed
[16] = system: S. aureus Smith (Sensitive); experiment: MIC, agar dilution; format: cell-based; conditions: S. aureus SMITH (MP); Table IA; unit assumed
[17] = system: Ps. acruginosa ATCC 27853; experiment: MIC, agar dilution (Table IA); format: cell-based; conditions: unit assumed
[18] = system: E. coli MC4100 TetB; experiment: MIC, agar dilution (Table IA); format: cell-based; conditions: unit assumed
[19] = system: S. aureus UBMS 88-5 (tetM); experiment: MIC, agar dilution; format: cell-based; conditions: S. aureus UBMS 88-5 TetM; Table IA; unit assumed
[20] = system: S. aureus UBMS 88-4 (Sensitive); experiment: MIC, agar dilution; format: cell-based; conditions: S. aureus UBMS 88-4; Table IA; unit assumed
[21] = system: E. coli UBMS 89-1 (tetM); experiment: MIC, agar dilution; format: cell-based; conditions: E. coli UBMS 89-1 TetM; Table IA; unit assumed
[22] = system: E. coli #311 (MP); experiment: MIC, agar dilution (Table IA); format: cell-based; conditions: unit assumed
[23] = system: E. coli ATCC 25922; experiment: MIC, agar dilution; format: cell-based; conditions: E. coli ATCC 25922; Table IA; unit assumed
[24] = system: S. aureus UBMS 90-2 (tetM); experiment: MIC, agar dilution; format: cell-based; conditions: S. aureus UBMS 90-2 TetM; Table IA; unit assumed
[25] = system: X. maltophilia NEMC 87210; experiment: MIC, agar dilution (Table IA); format: cell-based; conditions: unit assumed
[26] = system: E. faecalis ATCC 29212; experiment: MIC, agar dilution; format: cell-based; conditions: E. faecalis ATCC 29212; Table IA; unit assumed
[27] = system: E. coli PRP1 TetA; experiment: MIC, agar dilution (Table IA); format: cell-based; conditions: unit assumed
[28] = system: S. aureus ROSE (MP); experiment: MIC, agar dilution (Table IA); format: cell-based; conditions: unit assumed
[29] = system: S. aureus NEMC 8769/89-4; experiment: MIC, agar dilution (Table IA); format: cell-based; conditions: unit assumed
[30] = system: E. coli MC4100 Tet sens.; experiment: MIC, agar dilution (Table IA); format: cell-based; conditions: unit assumed
[31] = system: E. coli UBMS 88-1 (tetB); experiment: MIC, agar dilution; format: cell-based; conditions: E. coli UBMS 88-1 TetB; Table IA; unit assumed
[32] = system: E. coli UBMS 89-2 (Sensitive); experiment: MIC, agar dilution; format: cell-based; conditions: E. coli UBMS 89-2 Tet Sens.; Table IA; unit assumed
[33] = system: TetM S30 extract, derivative of E. coli MRE600 containing the tetM determinant; experiment: E. coli in vitro transcription and protein translation, 35S-methionine incorporation (Table VIII)
[34] = system: Wild Type S30 extract, E. coli strain MRE600 (tetracycline sensitive); experiment: as above
[35] = system: E. coli J3272 Tet sens.; experiment: MIC, agar dilution (Table IA); format: cell-based; conditions: unit assumed
[36] = system: S. aureus SMITH (sens); experiment: In vivo antibacterial evaluation, acute lethal infection in mice; conditions: Oral
Source text: In Vivo Antibacterial Evaluation (Table VII)

Row | Compound | Antibacterial activity (MIC) [1] [µg/mL] | Antibacterial activity (MIC) [2] [µg/mL] | Antibacterial activity (MIC) [3] [µg/mL] | Antibacterial activity (MIC) [4] [µg/mL] | Antibacterial activity (MIC) [5] [µg/mL] | Antibacterial activity (MIC) [6] [µg/mL] | Antibacterial activity (MIC) [7] [µg/mL] | Antibacterial activity (MIC) [8] [µg/mL] | Antibacterial activity (MIC) [9] [µg/mL] | Antibacterial activity (MIC) [10] [µg/mL] | Antibacterial activity (MIC) [11] [µg/mL] | Antibacterial activity (MIC) [12] [µg/mL] | Antibacterial activity (MIC) [13] [µg/mL] | Antibacterial activity (MIC) [14] [µg/mL] | Antibacterial activity (MIC) [15] [µg/mL] | Antibacterial activity (MIC) [16] [µg/mL] | Antibacterial activity (MIC) [17] [µg/mL] | Antibacterial activity (MIC) [18] [µg/mL] | Antibacterial activity (MIC) [19] [µg/mL] | Antibacterial activity (MIC) [20] [µg/mL] | other results
1 | CCCCN(C)CC(=O)Nc1cc(N(C)C)c2c(c1O)C(=O)C1=C(O)C3(O)C(=O)C(C(N)=O)=C(O)C(N(C)C)C3CC1C2.Cl.Cl (stereo not drawn) [CCC, [4S-(4alpha,12aalpha)]-9-[[(Butylmethylamino)acetyl]amino]-4,7-Bis(dimethylamino)-1,4,4a,5,5a,6,11,12a-octahydro-3,10-12,12a-tetrahydroxy-1,11-dioxo-2-naphthacenecarboxamide dihydrochloride] | 0.5 | 16 | 2 | 1 | 1 | 0.12 | 0.5 | 1 | 1 | 0.25 | 0.5 | 2 | 1 | 0.25 | 1 | 0.5 | > 32 | 2 | 0.5 | 0.5 | Antibacterial activity (MIC) [21]: 0.25 µg/mL; Antibacterial activity (MIC) [22]: 1 µg/mL; Antibacterial activity (MIC) [23]: 1 µg/mL; Antibacterial activity (MIC) [24]: 0.25 µg/mL; Antibacterial activity (MIC) [25]: 0.25 µg/mL; Antibacterial activity (MIC) [26]: 0.12 µg/mL; Antibacterial activity (MIC) [27]: 2 µg/mL; Antibacterial activity (MIC) [28]: 2 µg/mL; Antibacterial activity (MIC) [29]: 0.12 µg/mL; Antibacterial activity (MIC) [30]: 0.25 µg/mL; Antibacterial activity (MIC) [31]: 1 µg/mL; Antibacterial activity (MIC) [32]: 2 µg/mL
2 | CCN(CC)CC(=O)Nc1cc(N(C)C)c2c(c1O)C(=O)C1=C(O)[C@]3(O)C(=O)C(C(N)=O)=C(O)[C@@H](N(C)C)C3CC1C2.Cl.Cl (stereo partly drawn) [RR, [4S-(4alpha,12aalpha))-9-([(Diethylamino)acetyl)amino]-4,7-Bis(dimethylamino)-1,4,4a,5,5a,6,11,12a-octahydro-3,10,12,12a-tetrahydroxy-1,11-dioxo-2-naphthacenecarboxamide dihydrochloride] | 0.5 | 4 | 1 | 1 | 0.25 | 0.06 | 0.12 | 0.25 | 0.5 | 0.25 | 0.25 | 1 | 0.5 | 0.12 | 1 | 0.25 | 32 | 1 | 0.25 | 0.25 | % INHIBITION TetM S30 ([33]; 0.06 mg/ml): 90%; % INHIBITION TetM S30 ([33]; 0.2 mg/ml): 97%; % INHIBITION TetM S30 ([33]; 1.0 mg/ml): 99%; % INHIBITION Wild Type S30 ([34]; 0.06 mg/ml): 93%; % INHIBITION Wild Type S30 ([34]; 0.2 mg/ml): 97%; % INHIBITION Wild Type S30 ([34]; 1.0 mg/ml): 99%; Antibacterial activity (MIC) [35]: 1 µg/mL; ED50 [36]: 8 to 16 mg/kg; Antibacterial activity (MIC) [21]: 0.25 µg/mL; Antibacterial activity (MIC) [22]: 0.5 µg/mL; Antibacterial activity (MIC) [23]: 0.5 µg/mL; Antibacterial activity (MIC) [24]: 0.25 µg/mL; Antibacterial activity (MIC) [25]: 0.25 µg/mL; Antibacterial activity (MIC) [26]: 0.12 µg/mL; Antibacterial activity (MIC) [27]: 2 µg/mL; Antibacterial activity (MIC) [28]: 1 µg/mL; Antibacterial activity (MIC) [29]: 0.06 µg/mL; Antibacterial activity (MIC) [31]: 1 µg/mL; Antibacterial activity (MIC) [32]: 1 µg/mL
3 | CN(C)c1cc(NC(=O)Cn2ccnc2)c(O)c2c1CC1CC3[C@H](N(C)C)C(O)=C(C(N)=O)C(=O)[C@@]3(O)C(O)=C1C2=O.Cl.Cl (stereo partly drawn) [VV, [7S-(7alpha,10aalpha)]-N-[9-(Aminocarbonyl)-4,7-bis(dimethylamino)-5,5a,6,6a,7,10,10a,12-octahydro-1,8,10a,11-tetrahydroxy-10,12-dioxo-2-naphthacenyl]-1H-imidazole-1-acetamide dihydrochloride] | > 32 | > 32 | > 32 | > 32 | > 32 | 1 | 8 | 32 | > 32 | 4 | > 32 | > 32 | 32 | 4 | > 32 | 4 | > 32 | > 32 | 32 | 8 | % INHIBITION TetM S30 ([33]; 0.06 mg/ml): 79%; % INHIBITION TetM S30 ([33]; 0.2 mg/ml): 92%; % INHIBITION TetM S30 ([33]; 1.0 mg/ml): 98%; % INHIBITION Wild Type S30 ([34]; 0.06 mg/ml): 91%; % INHIBITION Wild Type S30 ([34]; 0.2 mg/ml): 93%; % INHIBITION Wild Type S30 ([34]; 1.0 mg/ml): 99%; Antibacterial activity (MIC) [35]: > 32 µg/mL; Antibacterial activity (MIC) [21]: > 32 µg/mL; Antibacterial activity (MIC) [22]: > 32 µg/mL; Antibacterial activity (MIC) [23]: > 32 µg/mL; Antibacterial activity (MIC) [24]: 16 µg/mL; Antibacterial activity (MIC) [25]: > 32 µg/mL; Antibacterial activity (MIC) [26]: 4 µg/mL; Antibacterial activity (MIC) [27]: > 32 µg/mL; Antibacterial activity (MIC) [28]: > 32 µg/mL; Antibacterial activity (MIC) [29]: 4 µg/mL; Antibacterial activity (MIC) [31]: > 32 µg/mL; Antibacterial activity (MIC) [32]: > 32 µg/mL
